Experimental data from US20230265098A1, “ALKYNE QUINAZOLINE DERIVATIVES AS INHIBITORS OF ERBB2” (EnLiven Therapeutics, Inc., priority 2020, published 2023).

Experiments:
[1] = molecular target: T1, Ba/F3 ERBB2 A775_G776insYVMA (Homo sapiens, UniProt P04626, DUP772-775, cells depend on it); test: Cell viability assay (CellTiter Glo); format: cell-based, mouse; details: 72 hours; 300 cells per well, 384-well plates (Table B5); read-out: Cell Line: Ba/F3 ERBB2 A775 G776ins YVMA IC50
T1 construct: Ba/F3 cell lines were engineered to express human ERBB2 or EGFR kinases, rendering the cells IL-3 independent
T1 sequence (P04626 with tags, fused parts or gaps DUP772-775): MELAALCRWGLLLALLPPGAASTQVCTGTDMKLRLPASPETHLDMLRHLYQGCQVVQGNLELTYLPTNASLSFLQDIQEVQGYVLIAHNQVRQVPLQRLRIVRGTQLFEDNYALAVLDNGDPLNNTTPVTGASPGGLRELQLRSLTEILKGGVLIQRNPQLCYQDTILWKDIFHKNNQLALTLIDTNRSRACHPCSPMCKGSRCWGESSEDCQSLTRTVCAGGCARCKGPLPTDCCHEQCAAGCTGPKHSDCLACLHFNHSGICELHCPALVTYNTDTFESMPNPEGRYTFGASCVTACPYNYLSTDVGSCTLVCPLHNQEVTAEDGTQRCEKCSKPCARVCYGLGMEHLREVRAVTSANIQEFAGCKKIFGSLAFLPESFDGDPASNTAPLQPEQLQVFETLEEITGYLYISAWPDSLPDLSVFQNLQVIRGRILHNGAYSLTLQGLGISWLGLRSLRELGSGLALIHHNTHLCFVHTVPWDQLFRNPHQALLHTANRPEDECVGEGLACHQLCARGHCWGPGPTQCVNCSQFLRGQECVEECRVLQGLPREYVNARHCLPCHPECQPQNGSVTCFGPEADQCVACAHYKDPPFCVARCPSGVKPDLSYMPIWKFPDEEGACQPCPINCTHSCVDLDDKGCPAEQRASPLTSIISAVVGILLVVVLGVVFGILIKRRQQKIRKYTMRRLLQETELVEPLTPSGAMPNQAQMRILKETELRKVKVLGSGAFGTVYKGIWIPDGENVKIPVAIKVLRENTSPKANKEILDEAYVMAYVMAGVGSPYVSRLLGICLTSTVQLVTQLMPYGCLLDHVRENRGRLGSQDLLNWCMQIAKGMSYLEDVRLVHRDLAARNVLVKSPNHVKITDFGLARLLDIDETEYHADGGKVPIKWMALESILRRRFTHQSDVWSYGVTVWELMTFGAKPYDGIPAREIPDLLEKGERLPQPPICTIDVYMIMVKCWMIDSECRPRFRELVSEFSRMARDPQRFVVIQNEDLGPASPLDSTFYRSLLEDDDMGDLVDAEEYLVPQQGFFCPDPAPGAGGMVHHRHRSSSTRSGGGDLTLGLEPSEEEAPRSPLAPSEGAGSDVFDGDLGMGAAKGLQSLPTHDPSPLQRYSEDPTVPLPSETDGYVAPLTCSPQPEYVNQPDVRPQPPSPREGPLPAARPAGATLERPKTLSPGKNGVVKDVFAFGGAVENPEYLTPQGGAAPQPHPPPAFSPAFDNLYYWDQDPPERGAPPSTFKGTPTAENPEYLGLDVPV
Experimental: Cells were treated with compounds, and cell viability was measured as a metric of kinase inhibition.
The Ba/F3 cell line is IL-3-dependent mouse cell line derived from the C3H mouse strain. Ba/F3 cell lines were engineered to express human ERBB2 or EGFR kinases, rendering the cells IL-3 independent. The lines were generated via retroviral transduction utilizing a Moloney murine leukemia virus (MMLV) promoter, and constructs are stably integrated into the cell genome.
Similarly, Ba/F3 cell lines engineered to express EGFR, ERBB2, or ERBB2 mutants were grown, harvested, counted and seeded at 3000 cells per well in 96-well plates for the data sets shown in Tables B3-B4, and seeded at 300 cells per well in 384-well plates for the data set shown in Table B5. A subset of wells contained media only (low control, “LC”).
Table B2 provides the growth media and number of cells seeded per well for the each cell line.
Compounds were dissolved in DMSO and serially diluted. Serially-diluted compound or a DMSO only control (high control, “HC”) was added to the plated cells in each well. […] The final proportion of DMSO never exceeded 0.1%.
Plates were placed in a 37° C., 5% CO2 incubator for 72 hours. Plates were then removed from the incubator and equilibrated for 15 minutes at room temperature. 40 IA of CellTiter Glo reagent (Promega) was added to measure the relative level of metabolically active cells by quantifying intracellular ATP concentrations. Plates were incubated for 30 minutes at room temperature, and luminescence was measured. Percent viability was normalized to a vehicle control only using the following formula: % viability=100×(LumSample−LumLC) (LumHC−LumLC). Graphical curves were fitted using a nonlinear regression model with a sigmoidal dose response.

[2] = molecular target: T2, phosphorylated ERBB2 (pERBB2) (Homo sapiens, UniProt P04626); test: Detection of phosphorylated ERBB2 (pERBB2) by ELISA in BT-474 cells; format: cell-based; details: four hours incubation with compound, OD 450 nm
T2 construct: endogenous in cells; host or cells: BT-474
T2 sequence (P04626 23-1255): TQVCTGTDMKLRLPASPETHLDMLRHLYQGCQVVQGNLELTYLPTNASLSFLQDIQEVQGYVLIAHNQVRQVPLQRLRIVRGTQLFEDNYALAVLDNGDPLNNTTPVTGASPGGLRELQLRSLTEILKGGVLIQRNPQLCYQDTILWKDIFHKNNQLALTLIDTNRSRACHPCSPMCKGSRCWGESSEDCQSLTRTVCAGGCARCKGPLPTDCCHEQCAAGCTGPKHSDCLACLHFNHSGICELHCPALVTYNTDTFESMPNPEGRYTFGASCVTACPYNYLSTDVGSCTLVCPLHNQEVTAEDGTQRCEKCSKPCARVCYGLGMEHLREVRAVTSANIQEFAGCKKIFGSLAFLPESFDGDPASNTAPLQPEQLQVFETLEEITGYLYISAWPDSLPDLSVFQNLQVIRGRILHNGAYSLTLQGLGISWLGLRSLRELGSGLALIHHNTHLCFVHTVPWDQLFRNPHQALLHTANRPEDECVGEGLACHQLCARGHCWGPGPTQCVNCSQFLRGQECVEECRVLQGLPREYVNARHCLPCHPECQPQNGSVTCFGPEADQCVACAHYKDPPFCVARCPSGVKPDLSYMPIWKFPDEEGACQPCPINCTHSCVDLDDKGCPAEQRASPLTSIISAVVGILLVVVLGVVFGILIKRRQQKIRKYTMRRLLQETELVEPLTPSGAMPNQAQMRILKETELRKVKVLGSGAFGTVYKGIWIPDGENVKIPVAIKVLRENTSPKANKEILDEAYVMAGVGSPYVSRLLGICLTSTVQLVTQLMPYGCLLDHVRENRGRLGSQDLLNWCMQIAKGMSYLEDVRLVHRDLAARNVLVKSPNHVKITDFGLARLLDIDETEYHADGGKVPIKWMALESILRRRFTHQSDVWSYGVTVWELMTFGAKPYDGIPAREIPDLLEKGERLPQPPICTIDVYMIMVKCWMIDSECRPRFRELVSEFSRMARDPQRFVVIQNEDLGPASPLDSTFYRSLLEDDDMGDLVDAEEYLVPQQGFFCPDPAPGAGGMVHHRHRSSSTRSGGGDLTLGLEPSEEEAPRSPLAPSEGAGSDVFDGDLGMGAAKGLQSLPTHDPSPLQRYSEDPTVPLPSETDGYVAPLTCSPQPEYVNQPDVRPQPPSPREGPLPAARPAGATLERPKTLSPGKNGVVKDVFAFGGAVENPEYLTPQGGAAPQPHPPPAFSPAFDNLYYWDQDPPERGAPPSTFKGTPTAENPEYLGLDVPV
Experimental: BT-474 cells were seeded into a 96-well at 2.0*10^4 cells/100 μl/well.
Compounds were dissolved and serially diluted in DMSO. The compounds were then were added, mixed, and incubated for four hours at 37° C., 5% CO2. Compounds were added using four-fold dilutions at final concentrations ranging from 10 μM to 0.01 nM.
Following the four hour incubation with compounds, cell lysates were prepared. Plates were centrifuged for 5 min at 3000 RPM, and supernatant was removed from each well. Cells were washed 3 times by resuspension in 150 μl PBS, followed by centrifugation and removal of the supernatant, as above. […] Cells were incubated with lysis buffer for 1 hour at 4° C., and then stored at −80° C.
Enzyme-linked immunosorbent assays (ELISA) were performed to measure phosphorylated ERBB2 levels. […] The next day, plates were washed with PBS+0.05% Tween20 (PBST). 150 μl of 5% BSA blocking solution was added for 1 hour at room temperature, with shaking. Plates were washed with PBST. Cell lysates were thawed and 100 μl of lysate was added to the ELISA plate. The plates were incubated for 2 hours at room temperature, with shaking. […] Plates were incubated for 1 hour at room temperature, with shaking. Plates were then washed with PBST, and 100 μl TMB substrate solution (R&D Systems, cat #DY999) was added. Plate were incubated in the dark for 20 minutes at room temperature. 50 μl of Stop solution (R&D Systems, cat #DY994) (50 μl) was added to each well and mixed.
Optical density at 450 nm was read on an EnSpire plate reader (Perkin Elmer). The remaining kinase activity by calculated using the following formula: % Relative activity=100×(A450sample−A450LC)/(A450HC−A450LC). The low and high control values (“LC” and “HC”) were generated from lysate from wells without cells or with cells treated with 0.1% DMSO, respectively.

[3] = molecular target: T3, phosphorylated EGFR (pEGFR) (Homo sapiens, UniProt P00533); test: Detection of phosphorylated EGFR (pEGFR) in EGF-stimulated A431 cells (AlphaLISA); format: cell-based; details: A431 cells (10% FBS), 4 hours with compound, then EGF 30 ng/mL for 10 minutes
T3 construct: endogenous in cells; host or cells: A431
T3 sequence (P00533 25-1210): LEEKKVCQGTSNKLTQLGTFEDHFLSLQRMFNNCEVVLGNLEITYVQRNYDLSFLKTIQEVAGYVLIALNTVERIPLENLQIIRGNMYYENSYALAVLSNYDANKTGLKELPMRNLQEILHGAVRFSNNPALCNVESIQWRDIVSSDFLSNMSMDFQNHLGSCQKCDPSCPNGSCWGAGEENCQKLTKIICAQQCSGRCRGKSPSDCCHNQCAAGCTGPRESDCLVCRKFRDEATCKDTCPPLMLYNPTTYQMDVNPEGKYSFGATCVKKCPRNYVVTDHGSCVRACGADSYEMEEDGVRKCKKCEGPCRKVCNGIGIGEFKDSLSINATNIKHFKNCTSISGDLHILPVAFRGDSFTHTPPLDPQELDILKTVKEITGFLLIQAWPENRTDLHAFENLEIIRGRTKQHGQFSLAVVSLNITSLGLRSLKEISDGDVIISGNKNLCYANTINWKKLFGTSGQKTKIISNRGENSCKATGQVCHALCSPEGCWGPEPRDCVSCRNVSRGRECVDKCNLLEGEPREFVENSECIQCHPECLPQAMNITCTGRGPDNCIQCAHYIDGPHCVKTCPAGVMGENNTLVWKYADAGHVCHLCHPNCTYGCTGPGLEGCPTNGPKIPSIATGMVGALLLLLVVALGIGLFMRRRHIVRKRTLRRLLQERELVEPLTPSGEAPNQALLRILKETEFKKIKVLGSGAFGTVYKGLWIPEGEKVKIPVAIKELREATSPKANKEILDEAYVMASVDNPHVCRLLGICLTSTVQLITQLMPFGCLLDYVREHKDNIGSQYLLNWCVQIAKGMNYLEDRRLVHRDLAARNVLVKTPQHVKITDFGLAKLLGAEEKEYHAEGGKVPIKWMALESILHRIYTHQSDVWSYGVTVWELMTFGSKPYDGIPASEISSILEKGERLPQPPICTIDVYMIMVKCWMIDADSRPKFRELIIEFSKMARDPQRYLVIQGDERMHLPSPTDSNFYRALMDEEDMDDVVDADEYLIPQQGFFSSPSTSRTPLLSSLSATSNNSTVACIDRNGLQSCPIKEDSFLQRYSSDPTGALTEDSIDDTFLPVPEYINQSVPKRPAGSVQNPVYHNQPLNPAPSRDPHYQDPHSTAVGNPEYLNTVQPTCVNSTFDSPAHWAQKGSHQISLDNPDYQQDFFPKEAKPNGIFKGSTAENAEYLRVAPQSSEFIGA
Experimental: Enzyme-linked immunosorbent assays (ELISA) were performed to measure phosphorylated EGFR levels using A431 cells (10% FBS). A431 (1.0*10^4 cells/40 μl/well) cells were seeded in 384 well. Compounds were dissolved in DMSO, serially diluted in DMSO and then were added, mixed, and incubated for 4 hours at 37° C., 5% CO2. Following the 4-hours incubation, cells were stimulated for 10 minutes with EGF (Invitrogen, cat #PHG0311) at a final concentration of 30 ng/mL in the incubator. The media was aspirated and cells were lysed in 10 μL lysis buffer with protease and phosphatase inhibitors (PerkinElmer, cat #ALSU-PEGFR-A50K). The plates were placed on a shaker for 5 minutes and then incubated for 30 min at 4° C. for complete lysis. The lysate was transferred to an Optiplate (Perkin Elmer, cat #6007290).
Acceptor mix (PerkinElmer, cat #ALSU-PEGFR-A50K) was prepared just before use and 5 μL was dispensed to all the wells, followed by a 1.5-2 h incubation at room temperature in dark. The donor mix (PerkinElmer, cat #ALSU-PEGFR-A50K) was prepared under low light conditions prior to use and […] of donor mix was added to all the wells under subdued lighting or green filters. The plates were placed on a shaker for 5 min, sealed, and incubated overnight at room temperature in dark. Plates were read on the Envision (PerkinElmer) using standard AlphaLISA settings.
The percentage of inhibition on EGFR phosphorylation was calculated following equation: % Inhibition=100×(LumHC−LumSample)/(LumHC−LumLC). The low and high controls (LC/HC) are generated from lysate from wells with cells treated with DMSO or […] Staurosporine (BioAustralis, cat #BIA-S1086), […]. IC50 values were calculated by fitting the Curve using XLfit (v5.3.1.3), equation 201: Y=Bottom+(Top−Bottom)/(1+10^((LogIC50−X)*HillSlope)).

| Structure (SMILES) | IC50 [2] | IC50 [3] | GI50 [1] |
| --- | --- | --- | --- |
| CC#CC(=O)Nc1cc2c(Nc3ccc(Oc4ccn5ncnc5c4)c(C4CC4)c3)ncnc2cc1OCCN(C)C [Compound 195, N-{4-[(3-cyclopropyl-4-{[1,2,4]triazolo[1,5-a]pyridin-7-yloxy}phenyl)amino]-7-[2-(dimethylamino)ethoxy]quinazolin-6-yl}but-2-ynamide] | 104 nM | 7070 nM | 86.8 nM |
| CC#CC(=O)Nc1cc2c(Nc3ccc(Cc4ccn5ncnc5c4)c(C)c3)ncnc2cc1OCCN(C)C [Compound 196, N-(4-((4-([1,2,4]triazolo[1,5-a]pyridin-7-ylmethyl)-3-methylphenyl)amino)-7-(2-(dimethylamino)ethoxy)quinazolin-6-yl)but-2-ynamide] | 8.36 nM | 943 nM | 9.96 nM |
| CC#CC(=O)Nc1cc2c(Nc3ccc(Oc4ccn5ncnc5c4)c(F)c3)ncnc2cc1OCCN(C)C [Compound 198, N-(4-((4-([1,2,4]triazolo[1,5-a]pyridin-7-yloxy)-3-fluorophenyl)amino)-7-(2-(dimethylamino)ethoxy)quinazolin-6-yl)but-2-ynamide] | 6.23 nM | 508 nM | 11.5 nM |
| CC#CC(=O)Nc1cc2c(Nc3ccc(Oc4ccn5ncnc5c4)c(C)c3)ncnc2cn1 [Compound 199, N-(4-((4-([1,2,4]triazolo[1,5-a]pyridin-7-yloxy)-3-methylphenyl)amino)pyrido[3,4-d]pyrimidin-6-yl)but-2-ynamide] | 4.7 nM | 57.5 nM | 2.51 nM |
| CC#CC(=O)Nc1cc2c(Nc3ccc(Cc4ccn5ncnc5c4)c(F)c3)ncnc2cc1OCCN(C)C [Compound 202, N-{7-[2-(dimethylamino)ethoxy]-4-[(3-fluoro-4-{[1,2,4]triazolo[1,5-a]pyridin-7-ylmethyl}phenyl)amino]quinazolin-6-yl}but-2-ynamide] | 21.8 nM | 543 nM | 49.4 nM |
| CC#CC(=O)Nc1cc2c(Nc3ccc(Oc4ccn5ncnc5c4)c(C)c3)ncnc2cc1OCCN1CCN(C)CC1 [Compound 203, N-{4-[(3-methyl-4-{[1,2,4]triazolo[1,5-a]pyridin-7-yloxy}phenyl)amino]-7-[2-(4-methylpiperazin-1-yl)ethoxy]quinazolin-6-yl}but-2-ynamide] | 6.05 nM | 45.5 nM | 5.11 nM |
| CC#CC(=O)Nc1ccc2ncnc(Nc3ccc(Oc4ccc5nccnc5c4)c(C)c3)c2c1 [Compound 211, N-(4-{[3-methyl-4-(quinoxalin-6-yloxy)phenyl]amino}quinazolin-6-yl)but-2-ynamide] | 36.6 nM | 101 nM | 3.2 nM |
| CC#CC(=O)Nc1ccc2ncnc(Nc3ccc(Oc4ccc5c(c4)ncn5C)c(C)c3)c2c1 [Compound 212, N-[4-({3-methyl-4-[(1-methyl-1,3-benzodiazol-5-yl)oxy]phenyl}amino)quinazolin-6-yl]but-2-ynamide] | 52.3 nM | 377 nM | 9.41 nM |
| CC#CC(=O)Nc1ccc2ncnc(Nc3ccc(Oc4ccc5c(c4)ncn5C)c(C)c3)c2c1F [Compound 213, N-[5-fluoro-4-({3-methyl-4-[(1-methyl-1,3-benzodiazol-5-yl)oxy]phenyl}amino)quinazolin-6-yl]but-2-ynamide] | 32.4 nM | 579 nM | 9.65 nM |

More lines, in order of falling IC50 [2], values ahead:

| IC50 [2] | IC50 [3] | Structure (SMILES) | GI50 [1] |
| --- | --- | --- | --- |
| 1250 nM | > 10000 nM | CC#CC(=O)Nc1c(OCCCN(C)C)cc2ncnc(Nc3ccc(Cc4ccn5ncnc5c4)c(C)c3)c2c1F [Compound 209, N-{7-[3-(dimethylamino)propoxy]-5-fluoro-4-[(3-methyl-4-{[1,2,4]triazolo[1,5-a]pyridin-7-ylmethyl}phenyl)amino]quinazolin-6-yl}but-2-ynamide] | > 500 nM |
| 1180 nM | 2260 nM | CCOc1cc2ncnc(Nc3ccc(Oc4ccn5ncnc5c4)c(C)c3)c2cc1NC(=O)C#CCN1CCN(C)CC1 [Compound 208, N-{7-ethoxy-4-[(3-methyl-4-{[1,2,4]triazolo[1,5-a]pyridin-7-yloxy}phenyl)amino]quinazolin-6-yl}-4-(4-methylpiperazin-1-yl)but-2-ynamide triformate] | > 500 nM |
| 153 nM | 1970 nM | CC#CC(=O)Nc1cc2c(Nc3ccc(Oc4cnn(C)c(=O)c4)c(C)c3)ncnc2cc1OCCN(C)C [Compound 201, N-{7-[2-(dimethylamino)ethoxy]-4-({3-methyl-4-[(1-methyl-6-oxopyridazin-4-yl)oxy]phenyl}amino)quinazolin-6-yl}but-2-ynamide] | 346 nM |
| 18.2 nM | 804 nM | CC#CC(=O)Nc1cc2c(Nc3ccc(Oc4ccn5ncnc5c4)c(C)c3)ncnc2cc1OCCNC [Compound 194, N-{4-[(3-methyl-4-{[1,2,4]triazolo[1,5-a]pyridin-7-yloxy}phenyl)amino]-7-[2-(methylamino)ethoxy]quinazolin-6-yl}but-2-ynamide] | 32 nM |
| 12.1 nM | 1850 nM | CC#CC(=O)Nc1ccc2ncnc(Nc3cc(C)c(Oc4ccn5ncnc5c4)cc3F)c2c1F [Compound 210, N-{5-fluoro-4-[(2-fluoro-5-methyl-4-{[1,2,4]triazolo[1,5-a]pyridin-7-yloxy}phenyl)amino]quinazolin-6-yl}but-2-ynamide] | 10.8 nM |
| 3.7 nM | 69.6 nM | CC#CC(=O)Nc1cc2c(Nc3ccc(Oc4ccn5ncnc5c4)c(Cl)c3)ncnc2cc1OCCN(C)C [Compound 200, N-(4-((4-([1,2,4]triazolo[1,5-a]pyridin-7-yloxy)-3-chlorophenyl)amino)-7-(2-(dimethylamino)ethoxy)quinazolin-6-yl)but-2-ynamide] | 2.63 nM |
